From patent US11958844B2, “1,3,4-oxadiazole derivative compounds as histone deacetylase 6 inhibitor, and pharmaceutical composition comprising the same” (Chong Kun Dang Pharmaceutical Corp., priority 2018, dated 2024)

These molecules were tested against T1, HDAC6 human recombinant (Homo sapiens, UniProt Q9UBN7) (assay: HDAC enzyme activity inhibition (in vitro), fluorimetric HDAC6 assay). Conditions: samples at 0.1, 1, 10, 100 and 1000 nM, 37° C. 60 minutes, fluorescence Ex 390, Em 460.
T1 sequence (Q9UBN7 1-1215): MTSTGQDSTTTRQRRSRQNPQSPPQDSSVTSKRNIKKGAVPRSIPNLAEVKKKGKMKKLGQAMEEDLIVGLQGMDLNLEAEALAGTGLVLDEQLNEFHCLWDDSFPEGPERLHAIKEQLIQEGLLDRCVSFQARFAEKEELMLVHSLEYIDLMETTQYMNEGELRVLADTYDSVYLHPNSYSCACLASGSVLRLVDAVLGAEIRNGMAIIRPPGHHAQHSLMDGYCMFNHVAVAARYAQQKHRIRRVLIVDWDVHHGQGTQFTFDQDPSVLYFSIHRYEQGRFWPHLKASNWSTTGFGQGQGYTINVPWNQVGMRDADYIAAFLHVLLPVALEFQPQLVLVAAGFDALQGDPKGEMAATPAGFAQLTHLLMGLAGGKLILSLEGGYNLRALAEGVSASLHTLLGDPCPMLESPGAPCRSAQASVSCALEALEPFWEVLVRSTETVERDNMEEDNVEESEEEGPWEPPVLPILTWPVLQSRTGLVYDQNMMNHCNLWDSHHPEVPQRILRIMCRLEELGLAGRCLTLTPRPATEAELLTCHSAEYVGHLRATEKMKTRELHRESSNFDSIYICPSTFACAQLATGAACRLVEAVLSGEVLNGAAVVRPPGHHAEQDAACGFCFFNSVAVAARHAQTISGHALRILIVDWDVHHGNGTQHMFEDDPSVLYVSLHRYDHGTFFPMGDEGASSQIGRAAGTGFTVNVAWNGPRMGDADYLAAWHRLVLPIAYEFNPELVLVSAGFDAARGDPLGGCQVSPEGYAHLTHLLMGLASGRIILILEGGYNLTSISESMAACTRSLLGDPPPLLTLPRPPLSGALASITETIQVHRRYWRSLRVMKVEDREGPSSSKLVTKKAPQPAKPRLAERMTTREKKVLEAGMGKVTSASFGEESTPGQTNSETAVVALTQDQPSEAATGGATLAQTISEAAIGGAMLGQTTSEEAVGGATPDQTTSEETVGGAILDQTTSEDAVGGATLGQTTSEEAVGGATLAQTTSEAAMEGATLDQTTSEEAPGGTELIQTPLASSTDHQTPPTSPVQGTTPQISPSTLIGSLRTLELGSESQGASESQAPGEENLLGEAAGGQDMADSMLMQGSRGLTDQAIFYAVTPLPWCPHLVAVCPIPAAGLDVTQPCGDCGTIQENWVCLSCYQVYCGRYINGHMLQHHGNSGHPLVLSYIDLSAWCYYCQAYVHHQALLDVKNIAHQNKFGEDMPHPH
Format: biochemical
Protocol: To identify this, HDAC1/6 enzyme selectivity and cell selectivity (HDAC1: histone acetylation/HDAC6: tubulin acetylation) were investigated accordingly.
An HDAC enzyme inhibitory ability of a test material was measured by means of HDAC1 Fluorimetric Drug Discovery Assay Kit (Enzolifesciences: BML-AK511) and HDAC6 human recombinant (Calbiochem: 382180). For an HDAC1 assay, samples were treated at a concentration of 100, 1000 and 10000 nM. For an HDAC6 assay, samples were treated at a concentration of 0.1, 1, 10, 100 and 1000 nM. After such sample treatment, a reaction was continued at 37° C. for 60 minutes, then treated with a developer, and then subjected to reaction at 37° C. for 30 minutes, after which fluorescence intensity (Ex 390, Em 460) was measured by means of FlexStation3 (Molecular device).

O=c1cc(-c2nnc(C(F)F)o2)ccn1Cc1ccc([N+](=O)[O-])cc1 [Compound 26, 4-(5-(difluoromethyl)-1,3,4-oxadiazole-2-yl)-1-(4-nitrobenzyl)pyridine-2(1H)-one] and O=C(Cn1ccc(-c2nnc(C(F)F)o2)cc1=O)c1ccc([N+](=O)[O-])cc1 [Compound 25, 4-(5-(difluoromethyl)-1,3,4-oxadiazole-2-yl)-1-(2-(4-nitrophenyl)-2-oxoethyl)pyridine-2(1H)-one] are within 1.5-fold of each other in IC50: 0.272 µM for the first, 0.239 µM for the second.

Compared with O=c1cc(-c2nnc(C(F)F)o2)ccn1Cc1ccccc1F [Compound 17, 4-(5-(difluoromethyl)-1,3,4-oxadiazole-2-yl)-1-(2-fluorobenzyl)pyridine-2(1H)-one], O=c1cc(-c2nnc(C(F)(F)F)o2)ccn1Cc1ccccc1F [Compound 32, 1-(2-fluorobenzyl)-4-(5-(trifluoromethyl)-1,3,4-oxadiazole-2-yl)pyridine-2(1H)-one] is 4.8-fold higher in IC50: 0.507 µM for the first, 2.42 µM for the second.

CS(=O)(=O)c1ccc(C(=O)Cn2ccc(-c3nnc(C(F)(F)F)o3)cc2=O)cc1 [Compound 35, 1-(2-(4-(methylsulfonyl)phenyl)-2-oxoethyl)-4-(5-(trifluoromethyl)-1,3,4-oxadiazole-2-yl)pyridine-2(1H)-one] and O=C(Cn1ccc(-c2nnc(C(F)(F)F)o2)cc1=O)c1ccccc1 [Compound 42, 1-(2-oxo-2-phenylethyl)-4-(5-(trifluoromethyl)-1,3,4-oxadiazole-2-yl)pyridine-2(1H)-one] are within 1.5-fold of each other in IC50: 2.21 µM for the first, 1.91 µM for the second.

O=c1cc(-c2nnc(C(F)(F)F)o2)ccn1Cc1cccc(F)c1 [Compound 31, 1-(3-fluorobenzyl)-4-(5-(trifluoromethyl)-1,3,4-oxadiazole-2-yl)pyridine-2(1H)-one] and O=C(Cn1ccc(-c2nnc(C(F)(F)F)o2)cc1=O)c1ccc(Cl)s1 [Compound 37, 1-(2-(5-chlorothiophene-2-yl)-2-oxoethyl)-4-(5-(trifluoromethyl)-1,3,4-oxadiazole-2-yl)pyridine-2(1H)-one] are within 1.5-fold of each other in IC50: 1.1 µM for the first, 1.3 µM for the second.

Going from O=c1cc(-c2nnc(C(F)F)o2)ccn1Cc1noc(C(F)(F)F)n1 [Compound 28, 4-(5-(difluoromethyl)-1,3,4-oxadiazole-2-yl)-1-((5-(trifluoromethyl)-1,2,4-oxadiazole-3-yl)methyl)pyridine-2(1H)-one] to O=c1cc(-c2nnc(C(F)F)o2)ccn1Cc1cc(F)c(F)cc1F [Compound 13, 4-(5-(difluoromethyl)-1,3,4-oxadiazole-2-yl)-1-(2,4,5-trifluorobenzyl)pyridine-2(1H)-one], the IC50 rises from 0.156 µM to 0.306 µM (2-fold). The first is the more potent here.

Compared with CCN(CC)CCn1ccc(-c2nnc(C(F)F)o2)cc1=O [Compound 11, 1-(2-(diethylamino)ethyl)-4-(5-(difluoromethyl)-1,3,4-oxadiazole-2-yl)pyridine-2(1H)one], CC(C)CCn1ccc(-c2nnc(C(F)F)o2)cc1=O [Compound 53] is 5.8-fold lower in IC50: 2.25 µM for the first, 0.388 µM for the second.

O=C(Cn1ccc(-c2nnc(C(F)F)o2)cc1=O)c1ccc(Cl)cc1 [Compound 19, 1-(2-(4-chlorophenyl)-2-oxoethyl)-4-(5-(difluoromethyl)-1,3,4-oxadiazole-2-yl)pyridine-2(1H)-one] and O=C(Cn1ccc(-c2nnc(C(F)F)o2)cc1=O)c1ccc(Cl)c(Cl)c1 [Compound 18, 1-(2-(3,4-dichlorophenyl)-2-oxoethyl)-4-(5-(difluoromethyl)-1,3,4-oxadiazole-2-yl)pyridine-2(1H)-one] are within 1.5-fold of each other in IC50: 0.351 µM for the first, 0.509 µM for the second.

O=C1c2ccccc2C(=O)N1CCCCn1ccc(-c2nnc(C(F)F)o2)cc1=O [Compound 29, 2-(4-(4-(5-(difluoromethyl)-1,3,4-oxadiazole-2-yl)-2-oxopyridine-1(2H)-yl)butyl)isoindoline-1,3-dione] and O=C(Cn1ccc(-c2nnc(C(F)F)o2)cc1=O)c1ccc2ccccc2c1 [Compound 7, 4-(5-(difluoromethyl)-1,3,4-oxadiazole-2-yl)-1-(2-(naphthalene-2-yl)-2-oxoethyl)pyridine-2(1H)-one] are within 1.5-fold of each other in IC50: 0.261 µM for the first, 0.364 µM for the second.

O=C(C(Cn1ccc(-c2nnc(C(F)F)o2)cc1=O)c1ccccc1)N1CCS(=O)(=O)CC1 (stereo not drawn) [Compound 44] and O=C(N[C@@H](Cn1ccc(-c2nnc(C(F)F)o2)cc1=O)c1ccccc1)N1CCS(=O)(=O)CC1 [Compound 58, (R)—N-(2-(4-(5-(difluoromethyl)-1,3,4-oxadiazole-2-yl)-2-oxopyridine-1(2H)-yl)-1-phenylethyl)thiomorpholine-4-carboxamide 1,1-dioxide] are within 1.5-fold of each other in IC50: 0.382 µM for the first, 0.358 µM for the second.

COc1ccc(C(=O)Cn2ccc(-c3nnc(C(F)F)o3)cc2=O)c(OC)c1 [Compound 20, 4-(5-(difluoromethyl)-1,3,4-oxadiazole-2-yl)-1-(2-(2,4-dimethoxyphenyl)-2-oxoethyl) pyridine-2(1H)-one] and COc1cc(CCn2ccc(-c3nnc(C(F)F)o3)cc2=O)cc(OC)c1 [Compound 8, 4-(5-(difluoromethyl)-1,3,4-oxadiazole-2-yl)-1-(3,5-dimethoxyphenethyl)pyridine-2(1H)-one] are within 1.5-fold of each other in IC50: 0.257 µM for the first, 0.253 µM for the second.

Going from O=C(Cn1ccc(-c2nnc(C(F)F)o2)cc1=O)c1ccc2c(c1)OCCO2 [Compound 21] to O=c1cc(-c2nnc(C(F)F)o2)ccn1CCC1OCCCO1 [Compound 9, 1-(2-(1,3-dioxane-2-yl)ethyl)-4-(5-(difluoromethyl)-1,3,4-oxadiazole-2-yl)pyridine-2(1H)-one], the IC50 falls from 0.381 µM to 0.247 µM (1.5-fold).

Going from O=c1cc(-c2nnc(C(F)F)o2)ccn1Cc1ccc2ccccc2c1 [Compound 1, 4-(5-(difluoromethyl)-1,3,4-oxadiazole-2-yl)-1-(naphthalene-2-ylmethyl)pyridine-2(1H)-one] to CC(C)=CCn1ccc(-c2nnc(C(F)(F)F)o2)cc1=O [Compound 48, 1-(3-methylbut-2-en-1-yl)-4-(5-(trifluoromethyl)-1,3,4-oxadiazole-2-yl)pyridine-2(1H)-one], the IC50 rises from 0.082 µM to 1.67 µM (20-fold). The first is the more potent here.
